Key:
Assay in all cases: relative viability (nuclei count vs DMSO), 5 days (fraction); higher = more cells survive
NCI-H2126 = tested on: NCI-H2126
Outline: (§1)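 Lung cancer cell lines in 1536-well plates were dosed by pin tool the day after seeding, either with one drug alone or with a fixed anchor-drug dose plus five library-drug doses (not always all listed) in √10 steps. After 5 days, cells were fixed and their nuclei stained in one step (final 0.05% Triton X-100, 1% formaldehyde, 1 ug/ml Hoechst), then counted on 4× images. Relative viability is the nuclei count in treated wells divided by that in vehicle wells. Values are medians of duplicate plates.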

LC-2-ad = tested on: LC-2-ad
Outline: as §1

EPLC-272H = tested on: EPLC-272H
Outline: as §1

ChaGo-K-1 = tested on: ChaGo-K-1
Outline: as §1

PC-14 = tested on: PC-14
Outline: as §1

201T = tested on: 201T
Outline: as §1

NCI-H661 = tested on: NCI-H661
Outline: as §1

NCI-H1666 = tested on: NCI-H1666
Outline: as §1

RERF-LC-KJ = tested on: RERF-LC-KJ
Outline: as §1

NCI-H520 = tested on: NCI-H520
Outline: as §1

NCI-H650 = tested on: NCI-H650
Outline: as §1

HCC-78 = tested on: HCC-78
Outline: as §1

COR-L 105 = tested on: COR-L 105
Outline: as §1

NCI-H23 = tested on: NCI-H23
Outline: as §1

NCI-H2405 = tested on: NCI-H2405
Outline: as §1

NCI-H647 = tested on: NCI-H647
Outline: as §1

HCC-827 = tested on: HCC-827
Outline: as §1

LCLC-97TM1 = tested on: LCLC-97TM1
Outline: as §1

NCI-H322M = tested on: NCI-H322M
Outline: as §1

NCI-H2087 = tested on: NCI-H2087
Outline: as §1

NCI-H2347 = tested on: NCI-H2347
Outline: as §1

NCI-H1915 = tested on: NCI-H1915
Outline: as §1

H3255 = tested on: H3255
Outline: as §1

Q: Which relative viability (NCI-H2126; first compound 0.08 µM) does the source give for `C=C1C(=O)O[C@@H](CCCCCCCC)[C@@H]1C(=O)O` [C-75] + COc1cccc2cc(-c3nc([C@H]4CC[C@H](C(=O)O)CC4)n4ncnc(N)c34)[nH]c12 [OSI-027] (partner 0.5 µM) here?
A: 0.762

Q: And the relative viability (NCI-H2126; first compound 0.253 µM)?
A: 0.757

Q: And the relative viability (NCI-H2126; first compound 0.8 µM)?
A: 0.707

Q: And the relative viability (NCI-H2126; first compound 2.53 µM)?
A: 0.744

Q: What about the relative viability (NCI-H2126; first compound 8 µM) of the same compound?
A: 0.66

Q: What about the relative viability (LC-2-ad; first compound 0.08 µM) of the same compound?
A: 0.745

Q: And the relative viability (LC-2-ad; first compound 0.253 µM)?
A: 0.799

Q: And the relative viability (LC-2-ad; first compound 0.8 µM)?
A: 0.747

Q: What about the relative viability (LC-2-ad; first compound 2.53 µM) of the same compound?
A: 0.646

Q: And the relative viability (LC-2-ad; first compound 8 µM)?
A: 0.686

Q: What about the relative viability (EPLC-272H; first compound 0.08 µM) of the same compound?
A: 0.271

Q: What about the relative viability (EPLC-272H; first compound 0.253 µM) of the same compound?
A: 0.302

Q: And the relative viability (EPLC-272H; first compound 0.8 µM)?
A: 0.278

Q: And the relative viability (EPLC-272H; first compound 2.53 µM)?
A: 0.227

Q: What about the relative viability (EPLC-272H; first compound 8 µM) of the same compound?
A: 0.235

Q: And the relative viability (ChaGo-K-1; first compound 0.08 µM)?
A: 0.605

Q: And the relative viability (ChaGo-K-1; first compound 0.253 µM)?
A: 0.545

Q: What about the relative viability (ChaGo-K-1; first compound 0.8 µM) of the same compound?
A: 0.532

Q: What about the relative viability (ChaGo-K-1; first compound 2.53 µM) of the same compound?
A: 0.422

Q: What about the relative viability (ChaGo-K-1; first compound 8 µM) of the same compound?
A: 0.564

Q: What about the relative viability (PC-14; first compound 0.08 µM) of the same compound?
A: 0.774

Q: And the relative viability (PC-14; first compound 0.253 µM)?
A: 0.958

Q: And the relative viability (PC-14; first compound 0.8 µM)?
A: 0.687

Q: What about the relative viability (PC-14; first compound 2.53 µM) of the same compound?
A: 0.767

Q: What about the relative viability (PC-14; first compound 8 µM) of the same compound?
A: 0.856

Q: What about the relative viability (201T; first compound 0.08 µM) of the same compound?
A: 0.734

Q: And the relative viability (201T; first compound 0.253 µM)?
A: 0.866

Q: And the relative viability (201T; first compound 0.8 µM)?
A: 0.698

Q: And the relative viability (201T; first compound 8 µM)?
A: 0.734

Q: What about the relative viability (NCI-H661; first compound 0.08 µM) of the same compound?
A: 0.697

Q: What about the relative viability (NCI-H661; first compound 0.253 µM) of the same compound?
A: 0.71

Q: And the relative viability (NCI-H661; first compound 0.8 µM)?
A: 0.72

Q: And the relative viability (NCI-H661; first compound 2.53 µM)?
A: 0.635

Q: What about the relative viability (NCI-H661; first compound 8 µM) of the same compound?
A: 0.736

Q: What about the relative viability (NCI-H1666; first compound 0.08 µM) of the same compound?
A: 0.798

Q: What about the relative viability (NCI-H1666; first compound 0.253 µM) of the same compound?
A: 0.97

Q: What about the relative viability (NCI-H1666; first compound 0.8 µM) of the same compound?
A: 0.885

Q: What about the relative viability (NCI-H1666; first compound 2.53 µM) of the same compound?
A: 0.726

Q: What about the relative viability (NCI-H1666; first compound 8 µM) of the same compound?
A: 0.786

Q: What about the relative viability (RERF-LC-KJ; first compound 0.08 µM) of the same compound?
A: 0.713

Q: And the relative viability (RERF-LC-KJ; first compound 0.253 µM)?
A: 0.63

Q: What about the relative viability (RERF-LC-KJ; first compound 0.8 µM) of the same compound?
A: 0.514

Q: What about the relative viability (RERF-LC-KJ; first compound 2.53 µM) of the same compound?
A: 0.552

Q: And the relative viability (RERF-LC-KJ; first compound 8 µM)?
A: 0.561

Q: And the relative viability (NCI-H520; first compound 0.08 µM)?
A: 0.237

Q: And the relative viability (NCI-H520; first compound 0.253 µM)?
A: 0.338

Q: And the relative viability (NCI-H520; first compound 0.8 µM)?
A: 0.242

Q: What about the relative viability (NCI-H520; first compound 2.53 µM) of the same compound?
A: 0.221

Q: What about the relative viability (NCI-H520; first compound 8 µM) of the same compound?
A: 0.294

Q: And the relative viability (NCI-H650; first compound 0.08 µM)?
A: 0.611

Q: What about the relative viability (NCI-H650; first compound 0.253 µM) of the same compound?
A: 0.401

Q: And the relative viability (NCI-H650; first compound 0.8 µM)?
A: 0.494

Q: What about the relative viability (NCI-H650; first compound 2.53 µM) of the same compound?
A: 0.448

Q: And the relative viability (NCI-H650; first compound 8 µM)?
A: 0.524

Q: And the relative viability (HCC-78; first compound 0.08 µM)?
A: 0.354

Q: And the relative viability (HCC-78; first compound 0.253 µM)?
A: 0.42

Q: And the relative viability (HCC-78; first compound 0.8 µM)?
A: 0.376

Q: What about the relative viability (HCC-78; first compound 2.53 µM) of the same compound?
A: 0.329

Q: What about the relative viability (HCC-78; first compound 8 µM) of the same compound?
A: 0.422

Q: What about the relative viability (COR-L 105; first compound 0.08 µM) of the same compound?
A: 0.709

Q: What about the relative viability (COR-L 105; first compound 0.253 µM) of the same compound?
A: 0.757

Q: And the relative viability (COR-L 105; first compound 0.8 µM)?
A: 0.648

Q: And the relative viability (COR-L 105; first compound 2.53 µM)?
A: 0.515

Q: And the relative viability (COR-L 105; first compound 8 µM)?
A: 0.696

Q: What about the relative viability (NCI-H23; first compound 0.08 µM) of the same compound?
A: 0.742

Q: And the relative viability (NCI-H23; first compound 0.253 µM)?
A: 0.698

Q: What about the relative viability (NCI-H23; first compound 0.8 µM) of the same compound?
A: 0.575

Q: What about the relative viability (NCI-H23; first compound 2.53 µM) of the same compound?
A: 0.375

Q: And the relative viability (NCI-H23; first compound 8 µM)?
A: 0.448

Q: And the relative viability (NCI-H2405; first compound 0.08 µM)?
A: 0.7

Q: What about the relative viability (NCI-H2405; first compound 0.253 µM) of the same compound?
A: 0.63

Q: What about the relative viability (NCI-H2405; first compound 0.8 µM) of the same compound?
A: 0.657

Q: What about the relative viability (NCI-H2405; first compound 2.53 µM) of the same compound?
A: 0.519

Q: And the relative viability (NCI-H2405; first compound 8 µM)?
A: 0.698

Q: What about the relative viability (NCI-H647; first compound 0.08 µM) of the same compound?
A: 0.697

Q: What about the relative viability (NCI-H647; first compound 0.253 µM) of the same compound?
A: 0.603

Q: What about the relative viability (NCI-H647; first compound 0.8 µM) of the same compound?
A: 0.522

Q: What about the relative viability (NCI-H647; first compound 2.53 µM) of the same compound?
A: 0.474

Q: And the relative viability (NCI-H647; first compound 8 µM)?
A: 0.574

Q: What about the relative viability (HCC-827; first compound 0.08 µM) of the same compound?
A: 0.757

Q: What about the relative viability (HCC-827; first compound 0.253 µM) of the same compound?
A: 0.826

Q: What about the relative viability (HCC-827; first compound 0.8 µM) of the same compound?
A: 0.751

Q: And the relative viability (HCC-827; first compound 2.53 µM)?
A: 0.597

Q: What about the relative viability (HCC-827; first compound 8 µM) of the same compound?
A: 0.758

Q: And the relative viability (LCLC-97TM1; first compound 0.08 µM)?
A: 0.554

Q: What about the relative viability (LCLC-97TM1; first compound 0.253 µM) of the same compound?
A: 0.636

Q: And the relative viability (LCLC-97TM1; first compound 0.8 µM)?
A: 0.543

Q: What about the relative viability (LCLC-97TM1; first compound 2.53 µM) of the same compound?
A: 0.192

Q: What about the relative viability (LCLC-97TM1; first compound 8 µM) of the same compound?
A: 0.479

Q: And the relative viability (NCI-H322M; first compound 0.08 µM)?
A: 0.543

Q: What about the relative viability (NCI-H322M; first compound 0.253 µM) of the same compound?
A: 0.7

Q: What about the relative viability (NCI-H322M; first compound 0.8 µM) of the same compound?
A: 0.583

Q: And the relative viability (NCI-H322M; first compound 2.53 µM)?
A: 0.478

Q: What about the relative viability (NCI-H322M; first compound 8 µM) of the same compound?
A: 0.588

Q: What about the relative viability (NCI-H2087; first compound 0.08 µM) of the same compound?
A: 0.609

Q: What about the relative viability (NCI-H2087; first compound 0.253 µM) of the same compound?
A: 0.807

Q: And the relative viability (NCI-H2087; first compound 0.8 µM)?
A: 0.54

Q: And the relative viability (NCI-H2087; first compound 2.53 µM)?
A: 0.377

Q: What about the relative viability (NCI-H2087; first compound 8 µM) of the same compound?
A: 0.528

Q: What about the relative viability (NCI-H2347; first compound 0.08 µM) of the same compound?
A: 0.408

Q: What about the relative viability (NCI-H2347; first compound 0.253 µM) of the same compound?
A: 0.523

Q: What about the relative viability (NCI-H2347; first compound 0.8 µM) of the same compound?
A: 0.44

Q: What about the relative viability (NCI-H2347; first compound 8 µM) of the same compound?
A: 0.478

Q: And the relative viability (NCI-H1915; first compound 0.08 µM)?
A: 0.656

Q: What about the relative viability (NCI-H1915; first compound 0.253 µM) of the same compound?
A: 0.588

Q: What about the relative viability (NCI-H1915; first compound 0.8 µM) of the same compound?
A: 0.61

Q: What about the relative viability (NCI-H1915; first compound 2.53 µM) of the same compound?
A: 0.382

Q: What about the relative viability (NCI-H1915; first compound 8 µM) of the same compound?
A: 0.588

Q: What about the relative viability (H3255; first compound 0.08 µM) of the same compound?
A: 0.589

Q: And the relative viability (H3255; first compound 0.253 µM)?
A: 0.7

Q: What about the relative viability (H3255; first compound 0.8 µM) of the same compound?
A: 0.481

Q: What about the relative viability (H3255; first compound 2.53 µM) of the same compound?
A: 0.562

Q: And the relative viability (H3255; first compound 8 µM)?
A: 0.633

From the supplement of paper PMC10307832
